Test results published in US7829568B2, “Substituted 5,6,7,8-tetrahydroimidazo[1,2-a]pyridin-2-ylamine compounds and their use for producing drugs” (Gruenenthal GmbH, priority 2005, dated 2010).

What follows are compounds tested on batrachotoxin (BTX) binding site of the sodium channel (assay: Affinity to the batrachotoxin (BTX) binding site of the sodium channel). Details: [3H]-batrachotoxinin A20 α-benzoate 10 nM; synaptosomes from rat cerebral cortex; test concentration not given.
Set-up: species or system rat

Compound | BTX inhibition (rat) (% inhibition) [%]
CCCCN(C(=O)c1ccc(F)c(F)c1)c1nc2n(c1C(=O)N1CCN(c3ccccc3Cl)CC1)CCCC2 [Example 178, N-butyl-N-{3-[4-(2-chloro-phenyl)-piperazine-1-carbonyl]-5,6,7,8-tetrahydro-imidazo[1,2-a]pyridin-2-yl}-3,4-difluoro-benzamide] | 79
CCCCN(C(=O)c1cccc(Cl)c1)c1nc2n(c1C(=O)N1CCN(Cc3ccc(Cl)cc3)CC1)CCCC2 [Example 140, N-butyl-3-chloro-N-{3-[4-(4-chloro-benzyl)-piperazine-1-carbonyl]-5,6,7,8-tetrahydro-imidazo[1,2-a]pyridin-2-yl}-benzamide] | 81
CCCCN(C(=O)c1cccc(Cl)c1)c1nc2n(c1C(=O)NCc1ccc(OC(F)(F)F)cc1)CCCC2 [Example 127, 2-[butyl-(3-chloro-benzoyl)-amino]-5,6,7,8-tetrahydro-imidazo[1,2-a]pyridine-3-carboxylic acid 4-trifluoromethoxy-benzylamide] | 60
CCCCN(C(=O)c1ccc(F)c(F)c1)c1nc2n(c1C(=O)N1CCN(C(c3ccccc3)c3ccccc3)CC1)CCCC2 [Example 56, N-[3-(4-benzhydryl-piperazine-1-carbonyl)-5,6,7,8-tetrahydro-imidazo[1,2-a]pyridin-2-yl]-N-butyl-3,4-difluoro-benzamide] | 65
CCCCN(C(=O)c1cccc(Cl)c1)c1nc2n(c1C(=O)N[C@H](C(=O)OCc1ccccc1)C(C)C)CCCC2 [Example 91] | 48
CN(C(=O)c1cccc2ccccc12)c1nc2n(c1C(=O)Nc1ccc(Oc3ccccc3)cc1)CCCC2 [Example 185, 2-[methyl-(naphthalene-1-carbonyl)-amino]-5,6,7,8-tetrahydro-imidazo[1,2-a]pyridine-3-carboxylic acid (4-phenoxy-phenyl)-amide] | 74
CCCCN(C(=O)c1ccc(F)c(F)c1)c1nc2n(c1C(=O)NC1CCC(C)CC1)CCCC2 (stereo not drawn) [Example 16, 2-[butyl-(3,4-difluoro-benzoyl)-amino]-5,6,7,8-tetrahydro-imidazo[1,2-a]pyridine-3-carboxylic acid (4-methyl-cyclohexyl)-amide] | 47
CCCCN(C(=O)c1cccc(Cl)c1)c1nc2n(c1C(=O)NCCCn1ccnc1)CCCC2 [Example 9, 2-[butyl-(3-chloro-benzoyl)-amino]-5,6,7,8-tetrahydro-imidazo[1,2-a]pyridine-3-carboxylic acid (3-imidazol-1-yl-propyl)-amide] | 36
CN(C(=O)c1cccc(Cl)c1)c1nc2n(c1C(=O)NCCC(c1ccccc1)c1ccccc1)CCCC2 [Example 128, 2-[(3-chloro-benzoyl)-methyl-amino]-5,6,7,8-tetrahydro-imidazo[1,2-a]pyridine-3-carboxylic acid (3,3-diphenyl-propyl)-amide] | 85
CCCCN(C(=O)c1cccc(Cl)c1)c1nc2n(c1C(=O)NCCc1cc(OC)ccc1OC)CCCC2 [Example 2, 2-[butyl-(3-chloro-benzoyl)-amino]-5,6,7,8-tetrahydro-imidazo[1,2-a]pyridine-3-carboxylic acid [2-(2,5-dimethoxy-phenyl)-ethyl]-amide] | 59
CCCCN(C(=O)c1cccc(Cl)c1)c1nc2n(c1C(=O)Nc1ccc3c(c1)OCCO3)CCCC2 [Example 181, 2-[butyl-(3-chloro-benzoyl)-amino]-5,6,7,8-tetrahydro-imidazo[1,2-a]pyridine-3-carboxylic acid (2,3-dihydro-benzo[1,4]dioxin-6-yl)-amide] | 82
CCCCN(C(=O)c1cccc(Cl)c1)c1nc2n(c1C(=O)NCCSCc1c(Cl)cccc1Cl)CCCC2 [Example 95, 2-[butyl-(3-chloro-benzoyl)-amino]-5,6,7,8-tetrahydro-imidazo[1,2-a]pyridine-3-carboxylic acid [2-(2,6-dichlor-benzylsulphanyl)-ethyl]-amide] | 68
CCc1ccccc1N1CCN(C(=O)c2c(N(C)C(=O)c3cccc4ccccc34)nc3n2CCCC3)CC1 [Example 136, naphthalene-1-carboxylic acid {3-[4-(2-ethyl-phenyl)-piperazine-1-carbonyl]-5,6,7,8-tetrahydro-imidazo[1,2-a]pyridin-2-yl}-methyl-amide] | 54
CN(C(=O)Cc1ccccc1)c1nc2n(c1C(=O)NCCc1cccc(C(F)(F)F)c1)CCCC2 [Example 156, 2-(methyl-phenylacetyl-amino)-5,6,7,8-tetrahydro-imidazo[1,2-a]pyridine-3-carboxylic acid [2-(3-trifluoromethyl-phenyl)-ethyl]-amide] | 40
CN(C(=O)c1cccc2ccccc12)c1nc2n(c1C(=O)N1CCc3c([nH]c4ccccc34)C1)CCCC2 [Example 144, naphthalene-1-carboxylic acid methyl-[3-(1,3,4,9-tetrahydro-b-carboline-2-carbonyl)-5,6,7,8-tetrahydro-imidazo[1,2-a]pyridin-2-yl]-amide] | 31
Cc1ccc(C)c(N2CCN(C(=O)c3c(N(C)C(=O)c4cccc(Cl)c4)nc4n3CCCC4)CC2)c1 [Example 100, 3-chloro-N-{3-[4-(2,5-dimethyl-phenyl)-piperazine-1-carbonyl]-5,6,7,8-tetrahydro-imidazo[1,2-a]pyridin-2-yl}-N-methyl-benzamide] | 74
CCCCN(C(=O)c1cccc(Cl)c1)c1nc2n(c1C(=O)NC(C)CCc1ccccc1)CCCC2 (stereo not drawn) [Example 145, 2-[butyl-(3-chloro-benzoyl)-amino]-5,6,7,8-tetrahydro-imidazo[1,2-a]pyridine-3-carboxylic acid (1-methyl-3-phenyl-propyl)-amide] | 67
CN(C(=O)c1cccc(Cl)c1)c1nc2n(c1C(=O)N1CCN(CCc3ccccc3)CC1)CCCC2 [Example 106, 3-chloro-N-methyl-N-[3-(4-phenethyl-piperazine-1-carbonyl)-5,6,7,8-tetrahydro-imidazo[1,2-a]pyridin-2-yl]-benzamide] | 40
CCc1ccc(NC(=O)c2c(N(C)C(=O)c3cccc(Cl)c3)nc3n2CCCC3)cc1 [Example 31, 2-[(3-chloro-benzoyl)-methyl-amino]-5,6,7,8-tetrahydro-imidazo[1,2-a]pyridine-3-carboxylic acid (4-ethyl-phenyl)-amide] | 70
CCCCN(C(=O)c1cccc(Cl)c1)c1nc2n(c1C(=O)NC1CCc3ccccc31)CCCC2 (stereo not drawn) [Example 52, 2-[butyl-(3-chloro-benzoyl)-amino]-5,6,7,8-tetrahydro-imidazo[1,2-a]pyridine-3-carboxylic acid indan-1-ylamide] | 45
CCCCN(C(=O)c1ccc(F)c(F)c1)c1nc2n(c1C(=O)NC1CCCCC1OCc1ccccc1)CCCC2 (stereo not drawn) [Example 161, 2-[butyl-(3,4-difluoro-benzoyl)-amino]-5,6,7,8-tetrahydro-imidazo[1,2-a]pyridine-3-carboxylic acid (2-benzyloxy-cyclohexyl)-amide] | 49
CN(C(=O)c1cccc(Cl)c1)c1nc2n(c1C(=O)N1CCN(Cc3ccc4ccccc4n3)CC1)CCCC2 [Example 53, 3-chloro-N-methyl-N-[3-(4-quinolin-2-ylmethyl-piperazine-1-carbonyl)-5,6,7,8-tetrahydro-imidazo[1,2-a]pyridin-2-yl]-benzamide] | 64
CCCCN(C(=O)c1cccc(Cl)c1)c1nc2n(c1C(=O)N1CCN(CCCc3ccccc3)CC1)CCCC2 [Example 26, N-butyl-3-chloro-N-{3-[4-(3-phenyl-propyl)-piperazine-1-carbonyl]-5,6,7,8-tetrahydro-imidazo[1,2-a]pyridin-2-yl}-benzamide] | 93
CCCCN(C(=O)c1ccc(F)c(F)c1)c1nc2n(c1C(=O)N1CCN(c3ccc(C(F)(F)F)cn3)CC1)CCCC2 [Example 187, N-butyl-3,4-difluoro-N-{3-[4-(5-trifluoromethyl-pyridin-2-yl)-piperazine-1-carbonyl]-5,6,7,8-tetrahydro-imidazo[1,2-a]pyridin-2-yl}-benzamide] | 41
CN(C(=O)c1cccc(Cl)c1)c1nc2n(c1C(=O)NC1CCN(Cc3ccccc3OCc3ccccc3)C1)CCCC2 (stereo not drawn) [Example 59, 2-[(3-chloro-benzoyl)-methyl-amino]-5,6,7,8-tetrahydro-imidazo[1,2-a]pyridine-3-carboxylic acid [1-(2-benzyloxy-benzyl)-pyrrolidin-3-yl]-amide] | 95
CN(C(=O)c1cccc2ccccc12)c1nc2n(c1C(=O)N1CCN(CC=Cc3ccccc3)CC1)CCCC2 [Example 173, naphthalene-1-carboxylic acid methyl-{3-[4-(3-phenyl-allyl)-piperazine-1-carbonyl]-5,6,7,8-tetrahydro-imidazo[1,2-a]pyridin-2-yl}-amide] | 74
Cc1ccc(NC(=O)c2c(N(C)C(=O)Cc3ccccc3)nc3n2CCCC3)cc1 [Example 159, 2-(methyl-phenylacetyl-amino)-5,6,7,8-tetrahydro-imidazo[1,2-a]pyridine-3-carboxylic acid p-tolylamide] | 37
CN(C(=O)c1cccc2ccccc12)c1nc2n(c1C(=O)Nc1ccc(C(C)(C)C)cc1)CCCC2 [Example 170, 2-[methyl-(naphthalene-1-carbonyl)-amino]-5,6,7,8-tetrahydro-imidazo[1,2-a]pyridine-3-carboxylic acid (4-tert-butyl-phenyl)-amide] | 80
CCCCN(C(=O)c1ccc(F)c(F)c1)c1nc2n(c1C(=O)N1CCN(c3cc(C)ccc3C)CC1)CCCC2 [Example 138, N-butyl-N-{3-[4-(2,5-dimethyl-phenyl)-piperazine-1-carbonyl]-5,6,7,8-tetrahydro-imidazo[1,2-a]pyridin-2-yl}-3,4-difluoro-benzamide] | 80

Same assay, conditions: radioligand at BTX binding site; rat cerebral cortex synaptosomes

Compound | Kd [µM]
[^3H]-batrachotoxinin A20 α-benzoate [reference compound] | 0.0246 ± 0.00156
